Measured values reported in the kinase profiling compilation of Christmann-Franck et al. (2016).

What was measured:
Assay in all cases: radiometric filter-binding kinase assay, Kinase HotSpot
Details in all cases: compound 0.5 µM; ATP 10 µM
[1] = biological target: AURKB (human) (UniProt Q96GD4)
[2] = biological target: CDK9 CCNT1 (human) (UniProt P50750+O60563)
[3] = biological target: CAMK1D (human) (UniProt Q8IU85)
[4] = biological target: STK33 (human) (UniProt Q9BYT3)
[5] = biological target: ULK1 (human) (UniProt O75385)
[6] = biological target: IKBKE (human) (UniProt Q14164)
[7] = biological target: DAPK1 (human) (UniProt P53355)
[8] = biological target: TEK (human) (UniProt Q02763)
[9] = biological target: TNK2 (human) (UniProt Q07912)
[10] = biological target: INSR (human) (UniProt P06213)
[11] = biological target: TXK (human) (UniProt P42681)
[12] = biological target: PAK1 (human) (UniProt Q13153)
[13] = biological target: SRPK2 (human) (UniProt P78362)
[14] = biological target: HCK (human) (UniProt P08631)
[15] = biological target: TSSK1B (human) (UniProt Q9BXA7)
[16] = biological target: ACVR1B (human) (UniProt P36896)
[17] = biological target: PRKCE (human) (UniProt Q02156)
[18] = biological target: FYN (human) (UniProt P06241)
Sequence of FYN (human) (P06241 whole entry, looked up): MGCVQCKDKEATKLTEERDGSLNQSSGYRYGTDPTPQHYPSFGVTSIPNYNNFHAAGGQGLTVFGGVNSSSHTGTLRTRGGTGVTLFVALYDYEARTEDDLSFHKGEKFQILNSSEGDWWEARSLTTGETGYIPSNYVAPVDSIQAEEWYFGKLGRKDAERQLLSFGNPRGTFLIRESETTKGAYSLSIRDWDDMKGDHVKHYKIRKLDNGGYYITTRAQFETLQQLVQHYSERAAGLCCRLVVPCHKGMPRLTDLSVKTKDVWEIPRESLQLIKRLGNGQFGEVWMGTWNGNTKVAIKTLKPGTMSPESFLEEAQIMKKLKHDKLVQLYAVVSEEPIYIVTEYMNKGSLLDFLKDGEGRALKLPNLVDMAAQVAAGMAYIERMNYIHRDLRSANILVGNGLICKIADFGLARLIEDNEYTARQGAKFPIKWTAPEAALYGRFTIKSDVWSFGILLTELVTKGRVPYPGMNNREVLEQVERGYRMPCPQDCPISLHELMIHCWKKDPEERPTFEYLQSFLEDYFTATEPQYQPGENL

[19] = biological target: PBK (human) (UniProt Q96KB5)
[20] = biological target: SRPK3 (human) (UniProt Q9UPE1)
[21] = biological target: CLK1 (human) (UniProt P49759)
[22] = biological target: CDK9 CCNK (human) (UniProt O75909+P50750)
[23] = biological target: CSNK1G1 (human) (UniProt Q9HCP0)
[24] = biological target: CDK5 CDK5R1 p35 (human) (UniProt Q00535+Q15078)
[25] = biological target: TGFBR1 (human) (UniProt P36897)
[26] = biological target: PRKG2 (human) (UniProt Q13237)
[27] = biological target: AXL (human) (UniProt P30530)
Sequence of AXL (human) (P30530 whole entry, looked up): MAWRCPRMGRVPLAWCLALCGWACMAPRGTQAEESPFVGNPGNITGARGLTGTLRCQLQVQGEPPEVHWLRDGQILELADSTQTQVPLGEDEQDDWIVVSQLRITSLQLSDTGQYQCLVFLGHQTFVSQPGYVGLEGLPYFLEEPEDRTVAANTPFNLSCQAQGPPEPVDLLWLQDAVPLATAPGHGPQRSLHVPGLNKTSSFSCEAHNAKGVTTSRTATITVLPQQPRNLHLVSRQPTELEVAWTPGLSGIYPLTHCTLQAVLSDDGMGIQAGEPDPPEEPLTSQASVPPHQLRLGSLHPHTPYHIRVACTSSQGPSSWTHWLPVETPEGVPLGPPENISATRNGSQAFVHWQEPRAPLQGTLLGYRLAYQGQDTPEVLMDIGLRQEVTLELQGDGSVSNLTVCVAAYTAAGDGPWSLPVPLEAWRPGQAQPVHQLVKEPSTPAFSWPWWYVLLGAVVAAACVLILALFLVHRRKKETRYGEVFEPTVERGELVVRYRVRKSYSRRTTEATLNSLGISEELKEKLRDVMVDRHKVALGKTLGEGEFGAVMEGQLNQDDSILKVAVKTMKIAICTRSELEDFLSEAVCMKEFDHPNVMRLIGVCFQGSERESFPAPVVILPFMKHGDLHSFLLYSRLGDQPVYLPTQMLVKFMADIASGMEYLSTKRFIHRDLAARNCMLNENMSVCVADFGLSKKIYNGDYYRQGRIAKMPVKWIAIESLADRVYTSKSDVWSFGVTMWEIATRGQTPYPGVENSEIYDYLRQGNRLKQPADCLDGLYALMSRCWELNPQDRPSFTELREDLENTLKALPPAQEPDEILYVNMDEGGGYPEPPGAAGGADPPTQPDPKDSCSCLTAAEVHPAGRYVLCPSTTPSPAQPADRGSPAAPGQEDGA

[28] = biological target: MAP3K5 (human) (UniProt Q99683)
[29] = biological target: MAP4K5 (human) (UniProt Q9Y4K4)
[30] = biological target: NEK7 (human) (UniProt Q8TDX7)
[31] = biological target: MAPKAPK2 (human) (UniProt P49137)
Sequence of MAPKAPK2 (human) (P49137 whole entry, looked up): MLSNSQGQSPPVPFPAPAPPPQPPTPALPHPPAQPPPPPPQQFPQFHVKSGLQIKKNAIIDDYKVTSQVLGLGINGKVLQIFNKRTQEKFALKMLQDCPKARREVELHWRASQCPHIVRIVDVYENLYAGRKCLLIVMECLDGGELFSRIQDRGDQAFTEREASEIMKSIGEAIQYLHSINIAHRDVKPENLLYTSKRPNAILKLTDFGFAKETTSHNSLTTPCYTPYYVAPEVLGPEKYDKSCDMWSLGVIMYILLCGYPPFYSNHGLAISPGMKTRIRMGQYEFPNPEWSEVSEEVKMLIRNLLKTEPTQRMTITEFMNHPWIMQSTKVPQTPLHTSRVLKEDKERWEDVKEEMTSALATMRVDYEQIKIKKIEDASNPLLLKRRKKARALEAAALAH

[32] = biological target: RPS6KA2 KD1 KD2 (human) (UniProt Q15349)
[33] = biological target: PRKCG (human) (UniProt P05129)
[34] = biological target: MAP3K8 (human) (UniProt P41279)
Sequence of MAP3K8 (human) (P41279 whole entry, looked up): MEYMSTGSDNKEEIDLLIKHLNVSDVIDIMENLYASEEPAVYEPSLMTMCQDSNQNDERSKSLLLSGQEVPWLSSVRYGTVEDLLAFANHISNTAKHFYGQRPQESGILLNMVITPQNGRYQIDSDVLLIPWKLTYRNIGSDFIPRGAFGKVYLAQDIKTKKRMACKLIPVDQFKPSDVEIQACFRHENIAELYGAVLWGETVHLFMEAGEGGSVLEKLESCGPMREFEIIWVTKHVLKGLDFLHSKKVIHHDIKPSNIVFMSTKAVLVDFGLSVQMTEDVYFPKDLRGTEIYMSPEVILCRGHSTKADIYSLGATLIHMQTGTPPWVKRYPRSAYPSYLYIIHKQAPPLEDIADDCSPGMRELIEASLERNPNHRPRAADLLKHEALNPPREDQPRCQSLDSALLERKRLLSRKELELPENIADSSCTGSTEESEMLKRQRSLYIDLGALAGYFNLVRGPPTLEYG

[35] = biological target: IGF1R (human) (UniProt P08069)
[36] = biological target: JAK3 JH1 JH2 (human) (UniProt P52333)
[37] = biological target: PAK3 (human) (UniProt O75914)
[38] = biological target: FLT3 (human) (UniProt P36888)
[39] = biological target: STK11 (human) (UniProt Q15831)
[40] = biological target: PLK2 (human) (UniProt Q9NYY3)
[41] = biological target: MARK3 (human) (UniProt P27448)
[42] = biological target: MAP3K9 (human) (UniProt P80192)

Sequence of CDK9 CCNT1 (human) (O60563 whole entry, looked up): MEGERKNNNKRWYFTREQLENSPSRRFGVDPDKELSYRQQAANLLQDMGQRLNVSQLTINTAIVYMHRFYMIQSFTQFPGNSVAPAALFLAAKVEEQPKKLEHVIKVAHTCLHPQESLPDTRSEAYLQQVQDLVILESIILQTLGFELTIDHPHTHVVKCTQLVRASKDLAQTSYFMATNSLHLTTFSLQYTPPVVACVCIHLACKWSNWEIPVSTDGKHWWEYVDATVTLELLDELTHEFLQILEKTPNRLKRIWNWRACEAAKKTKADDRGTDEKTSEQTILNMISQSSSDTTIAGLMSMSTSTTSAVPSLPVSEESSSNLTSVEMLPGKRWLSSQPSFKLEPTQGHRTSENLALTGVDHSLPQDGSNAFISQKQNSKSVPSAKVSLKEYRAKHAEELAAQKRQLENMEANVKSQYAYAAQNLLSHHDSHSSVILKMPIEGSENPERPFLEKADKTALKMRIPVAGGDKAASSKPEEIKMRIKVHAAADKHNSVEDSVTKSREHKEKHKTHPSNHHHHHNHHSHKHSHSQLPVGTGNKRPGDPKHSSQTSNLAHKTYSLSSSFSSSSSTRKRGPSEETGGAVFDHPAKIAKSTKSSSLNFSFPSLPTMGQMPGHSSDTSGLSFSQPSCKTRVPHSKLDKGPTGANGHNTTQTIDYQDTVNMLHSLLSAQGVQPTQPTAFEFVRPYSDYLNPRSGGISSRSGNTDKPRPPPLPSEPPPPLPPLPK
Sequence of CDK9 CCNT1 (human) (P50750 whole entry, looked up): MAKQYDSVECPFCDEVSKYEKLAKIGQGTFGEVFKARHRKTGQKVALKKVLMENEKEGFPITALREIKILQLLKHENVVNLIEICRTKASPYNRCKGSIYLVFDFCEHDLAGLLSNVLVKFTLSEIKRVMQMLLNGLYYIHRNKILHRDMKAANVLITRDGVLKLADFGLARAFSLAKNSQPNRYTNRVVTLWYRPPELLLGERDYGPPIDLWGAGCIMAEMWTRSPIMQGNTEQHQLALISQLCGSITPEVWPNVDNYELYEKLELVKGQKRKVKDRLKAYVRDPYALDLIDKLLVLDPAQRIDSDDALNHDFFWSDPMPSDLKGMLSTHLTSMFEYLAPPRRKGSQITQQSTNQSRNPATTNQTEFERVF
Sequence of STK33 (human) (Q9BYT3 whole entry, looked up): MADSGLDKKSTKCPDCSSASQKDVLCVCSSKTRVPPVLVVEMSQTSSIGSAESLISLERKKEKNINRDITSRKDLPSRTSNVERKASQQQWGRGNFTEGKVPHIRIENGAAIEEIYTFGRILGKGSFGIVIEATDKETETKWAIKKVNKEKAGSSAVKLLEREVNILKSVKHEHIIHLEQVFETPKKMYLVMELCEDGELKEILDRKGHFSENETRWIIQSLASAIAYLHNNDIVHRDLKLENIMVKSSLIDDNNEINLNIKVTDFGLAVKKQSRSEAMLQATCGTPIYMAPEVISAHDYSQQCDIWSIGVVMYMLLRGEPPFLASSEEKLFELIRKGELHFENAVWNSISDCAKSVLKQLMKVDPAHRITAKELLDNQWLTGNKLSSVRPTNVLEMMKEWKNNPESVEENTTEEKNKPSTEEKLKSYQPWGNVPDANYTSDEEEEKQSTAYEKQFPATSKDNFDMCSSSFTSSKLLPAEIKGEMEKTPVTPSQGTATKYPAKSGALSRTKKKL
Sequence of CAMK1D (human) (Q8IU85 whole entry, looked up): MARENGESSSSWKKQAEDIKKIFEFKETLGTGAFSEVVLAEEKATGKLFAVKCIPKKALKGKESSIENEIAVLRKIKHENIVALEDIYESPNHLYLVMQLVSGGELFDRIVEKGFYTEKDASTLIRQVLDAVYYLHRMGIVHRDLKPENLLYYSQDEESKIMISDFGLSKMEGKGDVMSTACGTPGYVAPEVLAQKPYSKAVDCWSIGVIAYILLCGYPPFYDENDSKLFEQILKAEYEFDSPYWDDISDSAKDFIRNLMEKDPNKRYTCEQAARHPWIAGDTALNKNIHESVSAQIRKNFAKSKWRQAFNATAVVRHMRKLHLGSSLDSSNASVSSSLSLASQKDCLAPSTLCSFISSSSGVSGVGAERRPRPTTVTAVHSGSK

`N/C(=N\N=C/c1ccc(-c2cccc([N+](=O)[O-])c2)o1)N[N+](=O)[O-]` gave a residual activity [1] of 99.1%, a residual activity [2] of 109% and a residual activity [3] of 96.4%. It also gave a residual activity [4] of 102%, a residual activity [5] of 93.7% and a residual activity [6] of 101%. The residual activity [7] was 97.8%, the residual activity [8] was 99.6% and the residual activity [9] was 99.9%. For the same compound, the residual activity [10] was 92%, the residual activity [11] was 98.3% and the residual activity [12] was 91.4%. It also gave a residual activity [13] of 101%, a residual activity [14] of 114% and a residual activity [15] of 96.7%. It also gave a residual activity [16] of 101%, a residual activity [17] of 90.5% and a residual activity [18] of 101%. The residual activity [19] was 111%, the residual activity [20] was 100% and the residual activity [21] was 105%. It also gave a residual activity [22] of 95.7%, a residual activity [23] of 96.4% and a residual activity [24] of 89.2%. The residual activity [25] was 96.6%, the residual activity [26] was 98.7% and the residual activity [27] was 100%. The residual activity [28] was 92.5%, the residual activity [29] was 109% and the residual activity [30] was 102%. For the same compound, the residual activity [31] was 96.3%, the residual activity [32] was 94.5% and the residual activity [33] was 96.4%. It also gave a residual activity [34] of 98.8%, a residual activity [35] of 96.4% and a residual activity [36] of 103%. It also gave a residual activity [37] of 95.1%, a residual activity [38] of 99.3% and a residual activity [39] of 98.7%. The residual activity [40] was 107% and the residual activity [41] was 107%.

For `FC(F)(F)c1ccc(/C=C/c2nc(COc3ccc(CCCCn4ccnn4)cc3)co2)cc1`, the residual activity [1] was 98%, the residual activity [2] was 99.5% and the residual activity [3] was 109%. The residual activity [4] was 93.7%, the residual activity [5] was 87.2% and the residual activity [6] was 94.8%. The residual activity [7] was 91.3%, the residual activity [8] was 95.8% and the residual activity [10] was 99.6%. For the same compound, the residual activity [11] was 101%, the residual activity [12] was 104% and the residual activity [13] was 101%. For the same compound, the residual activity [14] was 93.9%, the residual activity [15] was 93.4% and the residual activity [16] was 92.8%. For the same compound, the residual activity [17] was 101%, the residual activity [18] was 97% and the residual activity [19] was 99.9%. The residual activity [20] was 104%, the residual activity [21] was 101% and the residual activity [22] was 105%. For the same compound, the residual activity [23] was 100%, the residual activity [24] was 99.4% and the residual activity [25] was 98.8%. For the same compound, the residual activity [26] was 89.9%, the residual activity [27] was 101% and the residual activity [28] was 97.2%. The residual activity [29] was 96.5%, the residual activity [30] was 94.6% and the residual activity [31] was 97.9%. For the same compound, the residual activity [32] was 96.8%, the residual activity [33] was 95.2% and the residual activity [34] was 90.8%. It also gave a residual activity [35] of 101%, a residual activity [36] of 93% and a residual activity [37] of 101%. For the same compound, the residual activity [38] was 87.8%, the residual activity [39] was 104% and the residual activity [40] was 99.7%. It also gave a residual activity [42] of 105% and a residual activity [41] of 96.6%.

For `N#CCCc1ccc2c(c1)-c1[nH]c3ccc([N+](=O)[O-])cc3c1CC(=O)N2`, the residual activity [1] was 80%, the residual activity [2] was 28.6% and the residual activity [3] was 91.8%. The residual activity [4] was 78.8%, the residual activity [5] was 94.2% and the residual activity [6] was 89.2%. The residual activity [7] was 96.5%, the residual activity [8] was 97.6% and the residual activity [9] was 75.4%. For the same compound, the residual activity [10] was 94.1%, the residual activity [11] was 67.6% and the residual activity [12] was 52.1%. The residual activity [13] was 109%, the residual activity [14] was 63.8% and the residual activity [15] was 59.2%. It also gave a residual activity [16] of 110%, a residual activity [17] of 95.4% and a residual activity [18] of 52.2%. It also gave a residual activity [19] of 95.4%, a residual activity [20] of 94.6% and a residual activity [21] of 99.6%. It also gave a residual activity [22] of 23.7%, a residual activity [23] of 81.6% and a residual activity [24] of 2.6%. The residual activity [25] was 103%, the residual activity [26] was 93.9% and the residual activity [27] was 95.5%. The residual activity [28] was 101%, the residual activity [29] was 7.61% and the residual activity [30] was 87.4%. It also gave a residual activity [31] of 83.4%, a residual activity [32] of 24.4% and a residual activity [33] of 93.3%. The residual activity [34] was 87.5%, the residual activity [35] was 92.2% and the residual activity [36] was 101%. It also gave a residual activity [37] of 97.1%, a residual activity [38] of 15.1% and a residual activity [40] of 99%. For the same compound, the residual activity [42] was 18.2% and the residual activity [41] was 67.3%.
